molecular target: D(2) dopamine receptor (Rattus norvegicus, UniProt P61169); test: Inhibitory concentration against Dopamine receptor D2 (Inactive at >1000 nM concentration)
Sequence (P61169 whole entry): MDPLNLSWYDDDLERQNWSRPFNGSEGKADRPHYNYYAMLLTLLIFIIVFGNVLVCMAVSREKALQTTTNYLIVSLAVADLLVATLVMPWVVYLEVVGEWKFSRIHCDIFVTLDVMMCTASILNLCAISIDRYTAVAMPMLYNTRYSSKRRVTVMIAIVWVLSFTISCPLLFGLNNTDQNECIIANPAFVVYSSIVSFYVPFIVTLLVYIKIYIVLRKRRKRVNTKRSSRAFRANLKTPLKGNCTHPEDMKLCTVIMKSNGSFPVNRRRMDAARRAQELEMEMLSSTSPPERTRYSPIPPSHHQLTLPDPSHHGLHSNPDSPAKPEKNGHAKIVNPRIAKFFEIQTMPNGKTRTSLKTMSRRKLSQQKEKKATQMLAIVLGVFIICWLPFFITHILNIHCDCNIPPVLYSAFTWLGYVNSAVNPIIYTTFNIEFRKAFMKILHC

SMILES | IC50 [µM]
COc1cc2nc(N(C)Cc3ccccc3)nc(N)c2cc1OC | > 1
COc1cc2nc(N3CCN(C(C)=O)CC3)nc(NC(C)=O)c2cc1OC | > 1
COc1cc2nc(N3CCN(C(=O)C(C)(C)Oc4ccccc4OC)CC3)nc(N)c2cc1OC | > 1
COc1cc2nc(N3CCN(OCc4ccccc4)CC3)nc(N)c2cc1OC | > 1
COc1cc2nc(N3CCN(C(=O)C(c4ccccc4)c4ccccc4)CC3)nc(N)c2cc1OC | > 1
COc1cc2nc(N3CCN(Cc4ccccc4)CC3)nc(N)c2cc1OC | > 1
COc1cc2nc(N3CCc4c(ccc5ccccc45)C3)nc(N)c2cc1OC | > 1
COc1cc2c(cc1OC)CN(c1nc(N)c3cc(OC)c(OC)cc3n1)CC2 | > 1
COc1cc2nc(N3CCN(C(=O)C(C)(C)Oc4c(OC)cccc4C(C)C)CC3)nc(N)c2cc1OC | > 1

molecular target: T1, Adrenergic receptor alpha-1 (Rattus norvegicus, UniProt P15823+P23944+P43140); test: Inhibition of Alpha-1 adrenergic receptor in rat cortex membrane; type: cell membranes
T1 sequence (P15823 whole entry): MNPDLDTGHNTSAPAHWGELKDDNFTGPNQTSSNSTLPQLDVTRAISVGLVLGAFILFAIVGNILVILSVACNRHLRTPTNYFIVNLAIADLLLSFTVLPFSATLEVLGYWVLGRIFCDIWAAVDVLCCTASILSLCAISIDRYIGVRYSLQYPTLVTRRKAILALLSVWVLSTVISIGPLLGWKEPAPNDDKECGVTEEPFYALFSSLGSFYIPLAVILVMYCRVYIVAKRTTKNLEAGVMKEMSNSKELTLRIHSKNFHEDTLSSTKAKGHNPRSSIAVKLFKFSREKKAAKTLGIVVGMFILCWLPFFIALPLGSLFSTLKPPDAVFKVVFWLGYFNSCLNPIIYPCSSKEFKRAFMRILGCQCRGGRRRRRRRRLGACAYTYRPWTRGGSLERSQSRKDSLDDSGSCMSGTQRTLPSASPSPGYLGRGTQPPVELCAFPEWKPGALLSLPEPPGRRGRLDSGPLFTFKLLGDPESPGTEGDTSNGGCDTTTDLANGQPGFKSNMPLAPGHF
T1 sequence (P23944 whole entry): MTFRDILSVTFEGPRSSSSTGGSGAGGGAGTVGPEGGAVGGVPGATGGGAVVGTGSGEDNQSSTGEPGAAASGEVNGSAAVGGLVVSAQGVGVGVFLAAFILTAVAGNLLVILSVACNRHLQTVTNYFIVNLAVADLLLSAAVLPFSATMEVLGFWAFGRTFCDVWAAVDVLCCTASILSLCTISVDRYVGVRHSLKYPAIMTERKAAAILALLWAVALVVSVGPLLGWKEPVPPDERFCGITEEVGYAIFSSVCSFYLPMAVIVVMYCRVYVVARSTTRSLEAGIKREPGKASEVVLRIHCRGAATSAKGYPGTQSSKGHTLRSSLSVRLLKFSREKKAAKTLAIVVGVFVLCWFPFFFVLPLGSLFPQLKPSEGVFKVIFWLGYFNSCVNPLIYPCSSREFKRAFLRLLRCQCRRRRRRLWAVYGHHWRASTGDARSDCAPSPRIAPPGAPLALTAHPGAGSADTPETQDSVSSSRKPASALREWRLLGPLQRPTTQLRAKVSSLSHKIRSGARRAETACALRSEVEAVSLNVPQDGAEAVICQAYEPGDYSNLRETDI
T1 sequence (P43140 whole entry): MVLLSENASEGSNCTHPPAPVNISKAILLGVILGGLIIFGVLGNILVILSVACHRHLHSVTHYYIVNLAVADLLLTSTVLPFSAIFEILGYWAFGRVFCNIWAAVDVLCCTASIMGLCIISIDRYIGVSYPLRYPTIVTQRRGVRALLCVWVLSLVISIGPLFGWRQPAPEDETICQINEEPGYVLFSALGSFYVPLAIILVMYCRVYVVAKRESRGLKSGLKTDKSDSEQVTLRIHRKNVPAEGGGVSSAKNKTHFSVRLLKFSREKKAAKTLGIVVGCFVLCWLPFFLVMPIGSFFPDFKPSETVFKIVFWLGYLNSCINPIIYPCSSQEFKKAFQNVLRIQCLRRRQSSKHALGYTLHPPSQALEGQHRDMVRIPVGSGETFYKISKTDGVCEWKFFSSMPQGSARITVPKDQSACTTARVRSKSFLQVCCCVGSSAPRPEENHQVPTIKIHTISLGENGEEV

SMILES | IC50 [µM]
COc1cc2nc(N(C)Cc3ccccc3)nc(N)c2cc1OC | 0.07
COc1cc2nc(N3CCN(C(C)=O)CC3)nc(NC(C)=O)c2cc1OC | 5.08
COc1cc2nc(N3CCN(C(=O)C(C)(C)Oc4ccccc4OC)CC3)nc(N)c2cc1OC | 0.049
COc1cc2nc(N3CCN(OCc4ccccc4)CC3)nc(N)c2cc1OC | 0.111
COc1cc2nc(N3CCN(C(=O)C(c4ccccc4)c4ccccc4)CC3)nc(N)c2cc1OC | 0.0032
COc1cc2nc(N3CCN(Cc4ccccc4)CC3)nc(N)c2cc1OC | 0.032
COc1cc2nc(N3CCc4c(ccc5ccccc45)C3)nc(N)c2cc1OC | 0.0016
COc1cc2c(cc1OC)CN(c1nc(N)c3cc(OC)c(OC)cc3n1)CC2 | 0.0002
COc1cc2nc(N3CCN(C(=O)C(C)(C)Oc4c(OC)cccc4C(C)C)CC3)nc(N)c2cc1OC | 1.18

molecular target: 5-hydroxytryptamine receptor 2A (Rattus norvegicus, UniProt P14842); test: Inhibitory concentration against 5-hydroxytryptamine 2A receptor (Inactive at >1000 nM concentration)
Sequence (P14842 whole entry): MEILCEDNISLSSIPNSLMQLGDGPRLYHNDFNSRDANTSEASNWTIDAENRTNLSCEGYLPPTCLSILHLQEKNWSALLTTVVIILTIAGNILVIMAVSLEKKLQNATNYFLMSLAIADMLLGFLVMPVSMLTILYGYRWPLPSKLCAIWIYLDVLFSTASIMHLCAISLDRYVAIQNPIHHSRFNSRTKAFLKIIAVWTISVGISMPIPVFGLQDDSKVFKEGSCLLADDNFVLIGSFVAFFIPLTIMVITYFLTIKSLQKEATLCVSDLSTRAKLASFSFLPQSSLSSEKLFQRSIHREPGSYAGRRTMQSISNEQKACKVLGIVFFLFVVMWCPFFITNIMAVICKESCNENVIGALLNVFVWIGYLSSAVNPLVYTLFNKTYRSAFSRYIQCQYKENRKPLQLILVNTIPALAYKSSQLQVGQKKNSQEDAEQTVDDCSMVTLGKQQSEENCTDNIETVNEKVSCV

SMILES | IC50 [µM]
COc1cc2nc(N(C)Cc3ccccc3)nc(N)c2cc1OC | > 1
COc1cc2nc(N3CCN(C(C)=O)CC3)nc(NC(C)=O)c2cc1OC | > 1
COc1cc2nc(N3CCN(C(=O)C(C)(C)Oc4ccccc4OC)CC3)nc(N)c2cc1OC | > 1
COc1cc2nc(N3CCN(OCc4ccccc4)CC3)nc(N)c2cc1OC | > 1
COc1cc2nc(N3CCN(C(=O)C(c4ccccc4)c4ccccc4)CC3)nc(N)c2cc1OC | > 1
COc1cc2nc(N3CCN(Cc4ccccc4)CC3)nc(N)c2cc1OC | > 1
COc1cc2nc(N3CCc4c(ccc5ccccc45)C3)nc(N)c2cc1OC | > 1
COc1cc2c(cc1OC)CN(c1nc(N)c3cc(OC)c(OC)cc3n1)CC2 | > 1
COc1cc2nc(N3CCN(C(=O)C(C)(C)Oc4c(OC)cccc4C(C)C)CC3)nc(N)c2cc1OC | > 1

molecular target: T2, Adrenergic receptor alpha-2 (Rattus norvegicus, UniProt P22086+P19328+P22909); test: Inhibitory concentration against Alpha-2 adrenergic receptor; type: protein assay
T2 sequence (P22086 whole entry): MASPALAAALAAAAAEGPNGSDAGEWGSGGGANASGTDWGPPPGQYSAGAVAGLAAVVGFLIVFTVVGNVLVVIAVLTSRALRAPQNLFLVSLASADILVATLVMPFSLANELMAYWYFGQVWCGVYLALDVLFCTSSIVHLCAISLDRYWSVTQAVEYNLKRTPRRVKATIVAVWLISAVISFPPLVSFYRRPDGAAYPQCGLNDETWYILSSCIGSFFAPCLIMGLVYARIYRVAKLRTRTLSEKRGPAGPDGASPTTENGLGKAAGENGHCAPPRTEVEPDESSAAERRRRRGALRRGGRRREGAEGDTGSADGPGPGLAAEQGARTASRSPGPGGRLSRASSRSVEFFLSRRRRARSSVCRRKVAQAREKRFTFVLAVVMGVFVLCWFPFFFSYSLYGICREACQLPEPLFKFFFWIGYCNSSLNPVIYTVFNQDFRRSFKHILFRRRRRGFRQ
T2 sequence (P19328 whole entry): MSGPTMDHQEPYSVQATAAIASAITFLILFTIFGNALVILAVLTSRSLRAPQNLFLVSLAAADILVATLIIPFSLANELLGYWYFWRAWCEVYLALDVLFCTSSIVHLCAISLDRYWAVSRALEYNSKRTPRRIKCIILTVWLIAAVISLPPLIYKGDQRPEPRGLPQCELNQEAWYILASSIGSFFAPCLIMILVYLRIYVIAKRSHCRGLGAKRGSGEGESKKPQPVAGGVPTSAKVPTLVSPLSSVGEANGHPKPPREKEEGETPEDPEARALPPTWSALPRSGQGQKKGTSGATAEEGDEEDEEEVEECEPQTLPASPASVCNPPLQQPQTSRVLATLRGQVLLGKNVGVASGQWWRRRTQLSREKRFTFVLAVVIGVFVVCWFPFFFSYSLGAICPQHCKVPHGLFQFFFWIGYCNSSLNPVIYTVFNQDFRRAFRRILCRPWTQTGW
T2 sequence (P22909 whole entry): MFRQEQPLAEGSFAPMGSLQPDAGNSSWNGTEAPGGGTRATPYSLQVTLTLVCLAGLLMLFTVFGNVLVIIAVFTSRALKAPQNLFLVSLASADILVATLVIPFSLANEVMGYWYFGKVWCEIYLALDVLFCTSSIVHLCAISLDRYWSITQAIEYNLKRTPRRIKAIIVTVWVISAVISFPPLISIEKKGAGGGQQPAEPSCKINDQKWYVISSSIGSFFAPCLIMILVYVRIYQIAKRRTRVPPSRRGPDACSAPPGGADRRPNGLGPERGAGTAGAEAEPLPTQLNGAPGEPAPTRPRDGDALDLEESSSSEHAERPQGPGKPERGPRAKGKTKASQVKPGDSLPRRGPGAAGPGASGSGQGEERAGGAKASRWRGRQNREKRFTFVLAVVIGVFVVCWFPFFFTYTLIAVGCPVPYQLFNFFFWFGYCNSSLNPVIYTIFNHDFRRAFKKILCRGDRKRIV

SMILES | IC50 [µM]
COc1cc2nc(N(C)Cc3ccccc3)nc(N)c2cc1OC | > 1
COc1cc2nc(N3CCN(C(C)=O)CC3)nc(NC(C)=O)c2cc1OC | > 1
COc1cc2nc(N3CCN(C(=O)C(C)(C)Oc4ccccc4OC)CC3)nc(N)c2cc1OC | > 1
COc1cc2nc(N3CCN(OCc4ccccc4)CC3)nc(N)c2cc1OC | > 1
COc1cc2nc(N3CCN(C(=O)C(c4ccccc4)c4ccccc4)CC3)nc(N)c2cc1OC | > 1
COc1cc2nc(N3CCN(Cc4ccccc4)CC3)nc(N)c2cc1OC | > 1
COc1cc2nc(N3CCc4c(ccc5ccccc45)C3)nc(N)c2cc1OC | > 1
COc1cc2c(cc1OC)CN(c1nc(N)c3cc(OC)c(OC)cc3n1)CC2 | > 1
COc1cc2nc(N3CCN(C(=O)C(C)(C)Oc4c(OC)cccc4C(C)C)CC3)nc(N)c2cc1OC | > 1

molecular target: T3, 5-hydroxytryptamine receptor 1A (Rattus norvegicus, UniProt P19327); test: Inhibitory concentration against 5-hydroxytryptamine 1A receptor (Inactive at >1000 nM concentration)
T3 sequence (P19327 whole entry): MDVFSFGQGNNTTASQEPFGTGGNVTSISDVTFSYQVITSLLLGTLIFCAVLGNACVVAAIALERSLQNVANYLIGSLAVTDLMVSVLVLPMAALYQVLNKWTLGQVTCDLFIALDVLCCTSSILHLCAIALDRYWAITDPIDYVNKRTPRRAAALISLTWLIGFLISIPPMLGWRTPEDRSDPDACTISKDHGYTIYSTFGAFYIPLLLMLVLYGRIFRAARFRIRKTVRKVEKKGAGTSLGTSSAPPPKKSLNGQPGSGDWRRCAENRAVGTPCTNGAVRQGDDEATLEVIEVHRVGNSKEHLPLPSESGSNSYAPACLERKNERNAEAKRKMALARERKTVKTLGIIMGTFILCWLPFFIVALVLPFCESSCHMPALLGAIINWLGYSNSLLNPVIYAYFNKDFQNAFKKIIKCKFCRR

SMILES | IC50 [µM]
COc1cc2nc(N(C)Cc3ccccc3)nc(N)c2cc1OC | > 1
COc1cc2nc(N3CCN(C(C)=O)CC3)nc(NC(C)=O)c2cc1OC | > 1
COc1cc2nc(N3CCN(C(=O)C(C)(C)Oc4ccccc4OC)CC3)nc(N)c2cc1OC | > 1
COc1cc2nc(N3CCN(OCc4ccccc4)CC3)nc(N)c2cc1OC | > 1
COc1cc2nc(N3CCN(C(=O)C(c4ccccc4)c4ccccc4)CC3)nc(N)c2cc1OC | > 1
COc1cc2nc(N3CCN(Cc4ccccc4)CC3)nc(N)c2cc1OC | > 1
COc1cc2nc(N3CCc4c(ccc5ccccc45)C3)nc(N)c2cc1OC | > 1
COc1cc2c(cc1OC)CN(c1nc(N)c3cc(OC)c(OC)cc3n1)CC2 | > 1
COc1cc2nc(N3CCN(C(=O)C(C)(C)Oc4c(OC)cccc4C(C)C)CC3)nc(N)c2cc1OC | > 1

Reference: ChEMBL document CHEMBL1132568, “Synthesis, pharmacological evaluation, and structure-activity relationship and quantitative structure-activity relationship studies on novel derivatives of 2,4-diamino-6,7-dimethoxyquinazoline alpha1-adrenoceptor antagonists” (J Med Chem, 1999)
